According to ChEMBL document CHEMBL3352084, “Bioactive compounds from the insect Aspongopus chinensis” (Bioorg Med Chem Lett, 2014):
The source made the active and inactive calls. The rule behind the calls is not given here.

Assays:
[1] = Retention time of the compound by […] method; assay type: physicochemical
[2] = molecular target: Prostaglandin G/H synthase 2 (Homo sapiens, UniProt P35354); experiment: Inhibition of human recombinant COX2 pre-incubated for 15 mins before arachidonic acid addition by fluorescence micro plate reader method
Sequence of Prostaglandin G/H synthase 2 (P35354 whole entry, looked up): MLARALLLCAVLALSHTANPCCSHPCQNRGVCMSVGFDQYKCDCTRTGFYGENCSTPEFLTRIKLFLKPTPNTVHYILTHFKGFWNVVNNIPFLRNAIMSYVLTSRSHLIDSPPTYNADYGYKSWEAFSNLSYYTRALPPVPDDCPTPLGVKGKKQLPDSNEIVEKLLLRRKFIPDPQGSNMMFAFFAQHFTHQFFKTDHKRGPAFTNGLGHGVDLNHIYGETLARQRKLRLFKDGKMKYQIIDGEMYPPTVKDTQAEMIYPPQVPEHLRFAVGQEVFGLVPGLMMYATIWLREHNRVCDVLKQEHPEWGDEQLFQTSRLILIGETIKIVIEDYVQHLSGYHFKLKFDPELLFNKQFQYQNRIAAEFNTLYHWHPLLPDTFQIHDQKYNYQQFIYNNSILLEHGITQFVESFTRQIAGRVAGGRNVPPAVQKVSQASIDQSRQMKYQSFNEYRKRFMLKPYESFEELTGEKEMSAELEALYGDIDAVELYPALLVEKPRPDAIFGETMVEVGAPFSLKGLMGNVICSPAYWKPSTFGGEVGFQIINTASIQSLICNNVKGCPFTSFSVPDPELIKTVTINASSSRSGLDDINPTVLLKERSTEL

[3] = tested on: Rattus norvegicus; experiment: Inhibition of high glucose-induced collagen 4 production in rat renal mesangial cells dosed for 1 hr before 30 mM D-glucose stimulation for 24 hrs by ELISA; assay type: functional
[4] = tested on: Rattus norvegicus; experiment: Inhibition of high glucose-induced fibronectin production in rat renal mesangial cells dosed for 1 hr before 30 mM D-glucose stimulation for 24 hrs by ELISA; assay type: functional
[5] = tested on: Rattus norvegicus; experiment: Inhibition of high glucose-induced IL6 production in rat renal mesangial cells dosed for 1 hr before 30 mM D-glucose stimulation for 24 hrs by ELISA; assay type: functional

| SMILES | Retention_time [1] | IC50 [2] | inhibition [3] | inhibition [4] | inhibition [5] |
| --- | --- | --- | --- | --- | --- |
| C/C(=C/CCC(C)c1cc(O[C@@H]2O[C@H](CO)[C@@H](O)[C@H](O)[C@H]2O)c(O)cc1C)C(=O)O (some centres not stated) | 25.461 min |  |  |  |  |
| CC(=O)NCCc1ccc(O)c(O)c1 |  | 18.9 µM |  |  |  |
| CCc1nc(C)ccc1O |  |  | Active | Active | Active |
| CC(=O)N/C=C\c1ccc2c(c1)OC(NC(C)=O)C(c1ccc(O)c(O)c1)O2 (configuration not stated) |  |  | Active | Active | Active |
| CC(=O)/C=C/c1ccc(O)c(O)c1 |  | 22.2 µM |  |  |  |
| CC(C)C[C@@H]1NC(=O)[C@H](Cc2c[nH]c3ccccc23)NC1=O |  |  | Active | Active | Active |
| CC(=O)N/C=C\c1ccc2c(c1)OC(c1ccc(O)c(O)c1)C(NC(C)=O)O2 (configuration not stated) |  | 6.5 µM | Active | Active | Active |
| CC(=O)NC[C@@H](OC[C@H](O)CO)c1ccc(O)c(O)c1 |  | 117 µM |  |  |  |
